Results published in paper PMC7914897, “Cytotoxic Potential of a-Azepano- and 3-Amino-3,4-SeCo-Triterpenoids” (International Journal of Molecular Sciences, 2021).

How the values were obtained:
[1] = test system: A2780 (ovarian carcinoma); assay: SRB cytotoxicity assay, 72 h; format: cell-based, human; conditions: Homo sapiens; A2780, 72 h, cut-off 30 µM; read-out: EC50
Outline: (§1)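 Absorbance at 570 nm of SRB-stained cells gives % survival vs untreated controls, from which EC50 is determined. Treatment: 0–30 µM serial dilutions, 72 h, beginning 24 h post-seeding; DMSO ≤0.5%. TCA (10%) fixation, acetic acid wash.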

[2] = test system: A375 (malignant melanoma); assay: SRB cytotoxicity assay, 72 h; format: cell-based, human; conditions: Homo sapiens, A-375, 72 h, A375, 72 h, cut-off 30 µM; read-out: EC50
Outline: as §1

[3] = test system: FaDu (hypopharyngeal carcinoma); assay: SRB cytotoxicity assay, 72 h; format: cell-based, human; conditions: Homo sapiens, cut-off 30 µM, read-out: EC50
Outline: as §1

[4] = test system: HT29 (colorectal carcinoma); assay: SRB cytotoxicity assay, 72 h; format: cell-based, human; conditions: Homo sapiens, HT-29; HT29, 72 h, cut-off 30 µM; read-out: EC50
Outline: as §1

MCF-7 (breast carcinoma) = assay: SRB cytotoxicity assay, 72 h; format: cell-based, human; conditions: Homo sapiens, MCF7; MCF-7, 72 h, cut-off 30 µM; read-out: EC50
Outline: as §1

[5] = test system: NIH 3T3 (non-malignant mouse fibroblasts); assay: SRB cytotoxicity assay, 72 h; format: cell-based; conditions: Mus musculus, NIH3T3; NIH 3T3, 72 h, cut-off 30 µM; read-out: EC50
Outline: as §1

Leukemia subpanel = assay: cells; conditions: Homo sapiens
[6] = test system: MDA-MB-468 (Breast cancer); assay: cells; conditions: Homo sapiens
Colon Cancer subpanel = assay: NCI-60 screen, subpanel; conditions: Homo sapiens
CCRF-CEM (Leukemia) = assay: NCI-60 screen (SRB, 48 h); conditions: Homo sapiens
MOLT-4 (Leukemia) = assay: NCI-60 screen (SRB, 48 h); conditions: Homo sapiens
[7] = test system: A549/ATCC (NSC lung cancer); assay: NCI-60 screen (SRB, 48 h); conditions: Homo sapiens
HOP-92 (NSC lung cancer) = assay: NCI-60 screen (SRB, 48 h); conditions: Homo sapiens
[8] = test system: NCI-H23 (NSC lung cancer); assay: NCI-60 screen (SRB, 48 h); conditions: Homo sapiens
HCT-116 (Colon cancer) = assay: NCI-60 screen (SRB, 48 h); conditions: Homo sapiens
HCT-15 (Colon cancer) = assay: NCI-60 screen (SRB, 48 h); conditions: Homo sapiens
SF-295 (CNS cancer) = assay: NCI-60 screen (SRB, 48 h); conditions: Homo sapiens
SNB-19 (CNS cancer) = assay: NCI-60 screen (SRB, 48 h); conditions: Homo sapiens
U251 (CNS cancer) = assay: NCI-60 screen (SRB, 48 h); conditions: Homo sapiens
IGROV1 (Ovarian cancer) = assay: NCI-60 screen (SRB, 48 h); conditions: Homo sapiens
OVCAR-5 (Ovarian cancer) = assay: NCI-60 screen (SRB, 48 h); conditions: Homo sapiens
CAKI-1 (Renal cancer) = assay: NCI-60 screen (SRB, 48 h); conditions: Homo sapiens
SN12C (Renal cancer) = assay: NCI-60 screen (SRB, 48 h); conditions: Homo sapiens
TK-10 (Renal cancer) = assay: NCI-60 screen (SRB, 48 h); conditions: Homo sapiens
[9] = test system: MDA-MB-31/ATCC (Breast cancer); assay: NCI-60 screen (SRB, 48 h); conditions: Homo sapiens

Structure (SMILES): C=C(C)[C@@H]1CC[C@]2(C)[C@H](C=CC3=C4C[C@@](C)(CO)CC[C@]4(C)CC[C@]32C)[C@@]1(C)CCCN [Compound 20]
- EC50 [1]: 4.35 ± 0.2 µM
- EC50 [2]: 3.13 ± 0.1 µM
- EC50 [3]: 2.66 ± 0.2 µM
- EC50 [4]: 1.88 ± 0.3 µM
- EC50 (MCF-7 (breast carcinoma)): 2.84 ± 0.2 µM
- EC50 [5]: 3.46 ± 0.3 µM
- IC (TGI) (Leukemia subpanel; 48 h, read-out: TGI MG_MID): 4.52 µM
- GI50 (Leukemia subpanel; read-out: GI50 MG_MID): 1.82 µM
- CC50 (Leukemia subpanel; read-out: LC50 MG_MID): > 100 µM
- GI50 ([6]; MDA-MB-468): 1.58 µM
- IC (TGI) ([6]; MDA-MB-468, 48 h, read-out: TGI): 3.2 µM
- CC50 ([6]; MDA-MB-468, read-out: LC50): 6.47 µM
- IC (TGI) (Colon Cancer subpanel; 48 h, read-out: TGI MG_MID): 2.98 µM
- GI50 (Colon Cancer subpanel; read-out: GI50 MG_MID): 1.47 µM
- CC50 (Colon Cancer subpanel; read-out: LC50 MG_MID): 5.96 µM
- GI50 (CCRF-CEM (Leukemia)): 2.12 µM
- IC (TGI) (CCRF-CEM (Leukemia); 48 h, read-out: TGI): 5.56 µM
- CC50 (CCRF-CEM (Leukemia); read-out: LC50): > 100 µM
- GI50 (MOLT-4 (Leukemia); MOLT-4): 1.78 µM
- IC (TGI) (MOLT-4 (Leukemia); MOLT-4, 48 h, read-out: TGI): 3.86 µM
- GI50 ([7]; A549): 1.6 µM
- IC (TGI) ([7]; A549, 48 h, read-out: TGI): 3.18 µM
- CC50 ([7]; A549, read-out: LC50): 6.34 µM
- GI50 (HOP-92 (NSC lung cancer); HOP-92): 1.48 µM
- IC (TGI) (HOP-92 (NSC lung cancer); HOP-92, 48 h, read-out: TGI): 3.21 µM
- CC50 (HOP-92 (NSC lung cancer); HOP-92, read-out: LC50): 6.96 µM
- GI50 ([8]; NCI-H23): 1.77 µM
- IC (TGI) ([8]; NCI-H23, 48 h, read-out: TGI): 3.32 µM
- CC50 ([8]; NCI-H23, read-out: LC50): 6.24 µM
- GI50 (HCT-116 (Colon cancer); HCT-116): 1.69 µM
- IC (TGI) (HCT-116 (Colon cancer); HCT-116, 48 h, read-out: TGI): 3.21 µM
- CC50 (HCT-116 (Colon cancer); HCT-116, read-out: LC50): 6.08 µM
- GI50 (HCT-15 (Colon cancer); HCT-15): 1.53 µM
- IC (TGI) (HCT-15 (Colon cancer); HCT-15, 48 h, read-out: TGI): 2.92 µM
- CC50 (HCT-15 (Colon cancer); HCT-15, read-out: LC50): 5.56 µM
- GI50 (SF-295 (CNS cancer); SF-295): 1.78 µM
- IC (TGI) (SF-295 (CNS cancer); SF-295, 48 h, read-out: TGI): 3.21 µM
- CC50 (SF-295 (CNS cancer); SF-295, read-out: LC50): 5.79 µM
- GI50 (SNB-19 (CNS cancer); SNB-19): 1.75 µM
- IC (TGI) (SNB-19 (CNS cancer); SNB-19, 48 h, read-out: TGI): 3.17 µM
- CC50 (SNB-19 (CNS cancer); SNB-19, read-out: LC50): 5.74 µM
- GI50 (U251 (CNS cancer); U-251): 1.64 µM
- IC (TGI) (U251 (CNS cancer); U-251, 48 h, read-out: TGI): 3.32 µM
- CC50 (U251 (CNS cancer); U-251, read-out: LC50): 6.72 µM
- GI50 (IGROV1 (Ovarian cancer); IGROV-1): 1.5 µM
- IC (TGI) (IGROV1 (Ovarian cancer); IGROV-1, 48 h, read-out: TGI): 2.95 µM
- CC50 (IGROV1 (Ovarian cancer); IGROV-1, read-out: LC50): 5.8 µM
- GI50 (OVCAR-5 (Ovarian cancer); OVCAR-5): 1.71 µM
- IC (TGI) (OVCAR-5 (Ovarian cancer); OVCAR-5, 48 h, read-out: TGI): 3.06 µM
- CC50 (OVCAR-5 (Ovarian cancer); OVCAR-5, read-out: LC50): 5.57 µM
- GI50 (CAKI-1 (Renal cancer); CAKI-1): 1.52 µM
- IC (TGI) (CAKI-1 (Renal cancer); CAKI-1, 48 h, read-out: TGI): 2.85 µM
- CC50 (CAKI-1 (Renal cancer); CAKI-1, read-out: LC50): 5.34 µM
- GI50 (SN12C (Renal cancer)): 1.64 µM
- IC (TGI) (SN12C (Renal cancer); 48 h, read-out: TGI): 3.15 µM
- CC50 (SN12C (Renal cancer); read-out: LC50): 6.03 µM
- GI50 (TK-10 (Renal cancer); TK-10): 1.78 µM
- IC (TGI) (TK-10 (Renal cancer); TK-10, 48 h, read-out: TGI): 3.36 µM
- CC50 (TK-10 (Renal cancer); TK-10, read-out: LC50): 6.37 µM
- GI50 [9]: 1.77 µM
- IC (TGI) ([9]; 48 h, read-out: TGI): 3.27 µM
- CC50 ([9]; read-out: LC50): 6.02 µM
